Data: ChEMBL document CHEMBL2016454, “Design and synthesis of dihydrobenzofuran amides as orally bioavailable, centrally active γ-secretase modulators” (Bioorg Med Chem Lett, 2012)
The source made the active and inactive calls. No cut-off for these calls is given here.

Key:
[1] = Inhibition of gamma secretase expressed in CHO cells expressing APP assessed as amyloid beta42 production; type: cell-based
MDR1 (P-gp), human = assay: Efflux ratio of permeability in MDCK cells over expressing human MDR1; type: ADME, cell-based, Canis lupus familiaris; settings: dog
[2] = Intrinsic clearance in human liver microsomes; type: ADME, Microsome; settings: read-out: CLH
[3] = Volume of distribution at steady state in rat; type: ADME, organism-based; settings: in vivo, read-out: Vdss
[4] = Ratio of fraction unbound in Hartley guinea pig brain to IC50 of gamma secretase expressed in CHO cells expressing APP assessed as amyloid beta42 production; type: ADME, cell-based
[5] = Total plasma concentration in Hartley guinea pig at 100 mg/kg, po after 4 hrs post dose; type: ADME, organism-based, Cavia porcellus; set-up: dose 100 mg/kg, route oral
Gamma-secretase = assay: Inhibition of gamma-secretase expressed in human HEK293 NdeltaE cells assessed as cleavage of Notch; type: cell-based
[6] = Fraction unbound in Hartley guinea pig plasma at 100 mg/kg, po after 4 hrs post dose; type: ADME, organism-based, Cavia porcellus; set-up: dose 100 mg/kg, route oral
[7] = Drug uptake in Hartley guinea pig brain at 100 mg/kg, po after 4 hrs post dose; type: ADME, organism-based, Cavia porcellus; set-up: dose 100 mg/kg, route oral; settings: read-out: Drug uptake
[8] = Oral bioavailability in rat; type: ADME, organism-based; settings: in vivo
[9] = Fraction unbound in Hartley guinea pig brain at 100 mg/kg, po after 4 hrs post dose […]; type: ADME, organism-based, Cavia porcellus; set-up: dose 100 mg/kg, route oral
[10] = Half life in rat; type: ADME, organism-based; settings: in vivo
[11] = Clearance in rat; type: ADME, organism-based; settings: in vivo
Cavia porcellus [12] = assay: Antialzheimer activity in Hartley guinea pig assessed as effect on total amyloid beta level in plasma at 100 mg/kg, po after 4 hrs; type: functional, organism-based; set-up: dose 100 mg/kg
Cavia porcellus [13] = assay: Antialzheimer activity in Hartley guinea pig assessed as increase of amyloid beta38 level in plasma at 100 mg/kg, po after 4 hrs; type: functional
Cavia porcellus [14] = assay: Antialzheimer activity in Hartley guinea pig assessed as reduction of amyloid beta40 level in brain at 100 mg/kg, po after 4 hrs; type: functional; set-up: scale not given: the % may be the effect or the level left
Cavia porcellus [15] = assay: Antialzheimer activity in Hartley guinea pig assessed as reduction of amyloid beta42 level in brain at 100 mg/kg, po after 4 hrs; type: functional; set-up: scale not given: the % may be the effect or the level left
Cavia porcellus [16] = assay: Antialzheimer activity in Hartley guinea pig assessed as effect on total amyloid beta level in brain at 100 mg/kg, po after 4 hrs; type: functional, organism-based; set-up: dose 100 mg/kg
Brain = assay: Ratio of drug level in p-gp knock-out mouse brain to wild type mouse brain; type: ADME, tissue-based; settings: in vivo
Cytochrome P450 3A4 = Cytochrome P450 3A4 (Homo sapiens, UniProt P08684); assay: Inhibition of CYP3A4; type: ADME
Cytochrome P450 3A4, sequence (P08684 whole entry): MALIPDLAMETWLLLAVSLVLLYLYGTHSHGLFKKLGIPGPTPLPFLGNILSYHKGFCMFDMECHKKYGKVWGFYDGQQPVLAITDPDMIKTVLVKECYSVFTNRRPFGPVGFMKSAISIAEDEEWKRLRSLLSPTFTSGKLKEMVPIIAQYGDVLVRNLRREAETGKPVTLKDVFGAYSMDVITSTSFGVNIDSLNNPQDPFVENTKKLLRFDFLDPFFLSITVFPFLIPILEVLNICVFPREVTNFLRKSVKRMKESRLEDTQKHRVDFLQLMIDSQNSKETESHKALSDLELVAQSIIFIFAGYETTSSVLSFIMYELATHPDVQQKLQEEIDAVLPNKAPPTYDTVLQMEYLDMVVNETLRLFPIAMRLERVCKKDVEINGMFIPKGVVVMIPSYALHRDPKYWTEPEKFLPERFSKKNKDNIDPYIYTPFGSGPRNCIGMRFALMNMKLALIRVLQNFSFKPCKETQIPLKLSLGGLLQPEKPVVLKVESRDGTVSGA

Cytochrome P450 2D6 = Cytochrome P450 2D6 (Homo sapiens, UniProt P10635); assay: Inhibition of CYP2D6; type: ADME
Cytochrome P450 2D6, sequence (P10635 whole entry): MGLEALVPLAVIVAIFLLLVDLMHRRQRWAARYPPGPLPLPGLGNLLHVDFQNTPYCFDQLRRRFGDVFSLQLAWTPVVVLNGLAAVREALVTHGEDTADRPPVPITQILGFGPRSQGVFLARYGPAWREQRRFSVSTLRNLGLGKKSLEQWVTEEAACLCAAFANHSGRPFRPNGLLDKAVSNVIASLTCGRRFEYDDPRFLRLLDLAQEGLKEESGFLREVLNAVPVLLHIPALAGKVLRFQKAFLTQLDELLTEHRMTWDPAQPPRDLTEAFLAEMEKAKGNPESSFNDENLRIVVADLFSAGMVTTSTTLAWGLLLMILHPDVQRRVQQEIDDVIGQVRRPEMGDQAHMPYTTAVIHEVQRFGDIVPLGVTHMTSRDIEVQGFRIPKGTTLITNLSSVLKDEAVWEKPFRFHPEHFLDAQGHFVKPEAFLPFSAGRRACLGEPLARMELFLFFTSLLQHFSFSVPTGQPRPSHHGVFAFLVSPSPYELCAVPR

IC50 [1] [nM] | efflux ratio (MDR1 (P-gp), human) | microsomal CLint [2] [µL/min/mg] | Structure (SMILES) | further results
3440 | 1.6 |  | COc1cc(C(=O)N2CC[C@H](Oc3ccccc3C(F)(F)F)C2)cnc1-n1cnc(C)c1 | 
535 |  |  | COc1nc(C(=O)N2CC[C@H](Oc3ccccc3C(F)(F)F)C2)cnc1-n1cnc(C)c1 | 
330 | 3.8 | 30 | COc1cc(C(=O)NCc2cc(-c3cccc(Cl)c3)no2)ccc1-n1cnc(C)c1 | 
208 | 1.1 | 48.7 | COc1nc(C(=O)N2CC[C@H](Oc3ccccc3C(F)(F)F)C2)ccc1-n1cnc(C)c1 | 
521 | 1.6 | 22.3 | COc1cc(C(=O)N[C@H]2COc3ccc(Cl)cc32)ccc1-n1cnc(C)c1 | Vd [3]: 1.87 L; Ratio [4]: 2.1; concentration at 4 h [5]: 5120 ng/mL; IC50 (Gamma-secretase): > 50000 nM; fraction unbound at 4 h [6]: 0.088; concentration at 4 h [7]: 22100 ng/g; bioavailability [8]: 100%; fraction unbound at 4 h [9]: 0.018; half-life [10]: 2.43 h; clearance [11]: 9.63 mL/min/kg; Activity (Cavia porcellus [12]): inactive; Activity (Cavia porcellus [13]): 72%; Activity (Cavia porcellus [14]): 32%; Activity (Cavia porcellus [15]): 57%; Activity (Cavia porcellus [16]): inactive
343 | 1.3 | 28 | COc1nc(C(=O)N[C@H]2COc3ccc(Cl)cc32)ccc1-n1cnc(C)c1 | 
234 | 1.8 | 49.3 | COc1nc(C(=O)NC2COc3ccc(Cl)c(C)c32)ccc1-n1cnc(C)c1 (racemic) | 
1560 |  | 21.8 | COc1cc(C(=O)NC2COc3ccc(F)cc32)ccc1-n1cnc(C)c1 (racemic) | 
5330 |  |  | COc1cc(C(=O)N2CC[C@H](Oc3ccccc3C(F)(F)F)C2)ncc1-n1cnc(C)c1 | 
114 |  | 122 | CCOc1cc(C)c(CN(C(=O)c2ccc(-n3cnc(C)c3)c(OC)c2)C2CC2)cc1C(C)C | 
143 | 2.2 | 37.1 | COc1cc(/C=C2\CCCN([C@@H](C)c3ccc(F)cc3)C2=O)ccc1-n1cnc(C)c1 | 
309 | 1.6 | 112 | COc1cc(C(=O)NCC2(c3ccc(F)cc3)CCC2)ccc1-n1cnc(C)c1 | 
332 | 3.2 | 29.3 | COc1cc(C(=O)NCc2cnc(-c3ccccc3)s2)ccc1-n1cnc(C)c1 | Ratio (Brain): 5
320 | 2.5 | 50.8 | COc1cc(C(=O)N2CC[C@H](Oc3ccccc3C(F)(F)F)C2)ccc1-n1cnc(C)c1 | 
188 | 1.4 | 30 | COc1nc(C(=O)N[C@H]2COc3ccc(Cl)c(F)c32)ccc1-n1cnc(C)c1 | Vd [3]: 1.78 L; IC50 (Cytochrome P450 3A4): > 30000 nM; Ratio [4]: 0.31; concentration at 4 h [5]: 1290 ng/mL; IC50 (Gamma-secretase): > 50000 nM; fraction unbound at 4 h [6]: 0.078; concentration at 4 h [7]: 3710 ng/g; bioavailability [8]: 51%; IC50 (Cytochrome P450 2D6): > 30000 nM; fraction unbound at 4 h [9]: 0.0097; half-life [10]: 0.64 h; clearance [11]: 31.4 mL/min/kg; Activity (Cavia porcellus [14]): 16%; Activity (Cavia porcellus [15]): 36%
1460 | 8.7 |  | COc1cc(C(=O)NCc2nnc(-c3cccc(Cl)c3)o2)ccc1-n1cnc(C)c1 | 
605 | 0.5 | 32.7 | COc1cc(C(=O)N[C@H]2CCc3ccc(Cl)cc32)ccc1-n1cnc(C)c1 | 
1690 |  | 19.4 | COc1cc(C(=O)N[C@H]2COc3c(Cl)cccc32)ccc1-n1cnc(C)c1 | 
1660 | 1.7 | 97.3 | COc1cc(C(=O)NC2COc3cccc(Cl)c32)ccc1-n1cnc(C)c1 (racemic) | 
4400 | 1.1 | 12.6 | COc1cc(C(=O)N[C@@H](C)c2ccc(F)cc2)ccc1-n1cnc(C)c1 | 
659 | 1.8 | 29.2 | COc1cc(C(=O)NCc2cccc(C(F)(F)F)c2)ccc1-n1cnc(C)c1 | 
256 | 24 | 124 | COc1cc(C(=O)N2CC[C@](O)(COc3ccccc3C(F)(F)F)C2)ccc1-n1cnc(C)c1 | 
2990 |  | 16.9 | COc1ccc2c(c1)[C@@H](NC(=O)c1ccc(-n3cnc(C)c3)c(OC)c1)CO2 | 
1960 |  | 35.6 | COc1cc(C(=O)NC2COc3cc(Cl)ccc32)ccc1-n1cnc(C)c1 (racemic) | 
